Experiments:
[1] = Accelerated stability study in Buffer A (50/50 DMSO and 10 mM glycine buffer pH 2.0); format: physicochemical; conditions: 20-25 °C
Procedure: With an understanding of the degradation pathways and characteristics, a solvent system was designed for the purpose of extending shelf-life of QMP compounds. […] At elevated temperature the degradation pathway described in FIG. 3C was still observed. However, at normal storage conditions (2-25° C.) the rate of decomposition of the QMP is reduced compared to 100% aqueous systems.

[2] = system: Bcl2 on FFPE tonsil tissue; assay: HRP DAB amplified by QMP-biotin with different linkers; conditions: 100 nM, CHES pH 10.0, different linkers
Procedure: The tissue was deparaffinized and retrieved as described in the general procedures. Mouse-anti-Bcl-2 antibody incubation (37° C., 16 minutes) and washing were followed by secondary antibody incubation with a goat polyclonal anti-mouse antibody conjugated to AP (37° C.; 12 minutes). After incubating with the AP conjugate the slides were washed with Special Stains wash. Monofluoro QMP-biotin (with aniline amide (FIG. 23(A)), benzoic amide (FIG. 23(B)) or tyramide amide linker (FIG. 23(C)) (100 nM) was dissolved in 100 mM CHES, pH 10.0, 0.05% Brij-35 to a final concentration of 100 nM. QMP turnover was achieved by adding 100 μL of AP Enhancer followed by 100 μL of biotin labeled QMP and incubating at 37° C. for 16 minutes. The deposited biotin was subsequently bound by a streptavidin-HRP conjugate (37° C.; 8 minutes), and visualized via a brown precipitate produced by HRP upon the addition of hydrogen peroxide and DAB (37° C.; 8 minutes). The DAB was toned by the addition of copper sulfate (37° C.; 4 minutes). The stained tissue sections were counterstained with modified Mayer's hematoxylin (37° C.; 4 minutes) and then incubated with Bluing Reagent (37° C.; 4 minutes). They were then dehydrated through a graded ethanol series, cleared with xylene, and manually cover-slipped.

[3] = system: BCL6 on FFPE tonsil tissue; assay: AP-based CARD IHC with biotinylated QM precursor followed by DAB detection
Procedure: Detection 1—HRP DAB. After incubating with the AP conjugate the slides were washed with Special Stains wash (VMSI #860-015). QMP reagents were dissolved in 100 mM CHES (3-cyclo-hexylamino-ethylsulfonic acid), pH 10.0, 0.05% Brij-35. QMP turnover was achieved by adding 100 μL of AP Enhancer (VMSI #253-2182) followed by 100 μL of hapten labeled QMP and incubating at 37° C. for 16 minutes. Compound 29 is an exemplary hapten-QMP that could be used according to this method. The deposited hapten was subsequently bound by a mouse-anti-hapten-HRP conjugate (or streptavidin-HRP) (37° C.; 8 minutes), and visualized via a brown precipitate produced by HRP upon the addition of hydrogen peroxide and DAB (37° C.; 8 minutes). The DAB was toned by the addition of copper sulfate (37° C.; 4 minutes). The stained tissue sections were counterstained with modified Mayer's hematoxylin (Hematoxylin II, VMSI #790-2208) (37° C.; 4 minutes) and then incubated with Bluing Reagent (VMSI #760-2037) (37° C.; 4 minutes). The slides were then dehydrated through a graded ethanol series, cleared with xylene, and manually cover-slipped.
Both compounds utilize fluoride as the leaving group, but the reactivity of the QM derived from difluoro compound 58 should be considerably lower than monofluoro 7 due to the electronic stabilization offered by the geminal fluorine atom. […] Therefore, the difluoro QM precursor compound 58 was evaluated first for IHC staining performance on FFPE tissue using the nuclear marker BCL6 on FFPE tonsil tissue as a model system. The biotin-labeled difluoro QM precursor successfully bound to the sample as evidenced by subsequent biotin visualization using diaminobenzidine (DAB) detection. FIG. 18 provides microphotographs illustrating the detection level at varying concentrations of the difluoro QM precursor in a Tris buffer at pH=8.5 (panel A—DAB control, panel B—1 μM, panel C—10 μM and panel D—20 μM). In addition, significant amplification of signal was observed compared to the DAB control sample when on-slide concentrations of difluoro QM precursor compound 58 greater than […] were utilized.
To test the effect of pH on signal diffusion, difluoro QM precursor compound 58 was deposited as before at various pH levels within the working range for AP (7-12 with two shoulders of maximal activity at pH=8.5 and 11). The nuclear marker BCL6 on FFPE tonsil tissue was again chosen as the model. Positive staining was observed across the entire pH range, although a balance between overall signal and diffusion was seen. FIG. 19, panels A-H provide microphotographs of the detection levels of 20 µM QM precursor in Tris buffer with varying pH: panel A—DAB control; panel B pH=7.0; panel C pH=8.0; panel D pH=8.5; panel E pH=9.0; panel F pH=10.0; panel G pH=11.0; panel H pH=12.0. The diffusion appears to decrease with increasing pH. […] The level of amplification increased only as the pH rose to 8.5 and then decreased gradually over the rest of the range. This effect may be due to a combination of enzyme activity and the population of QM quenchers in the reaction media. At pH levels well below the optimal AP reaction conditions (7.0), the activity of AP was depressed, resulting in low signal. As the pH increased (8.0-8.5) but remained near the pKa of Tris (8.1), the activity of AP increased at a faster rate than the population of quenchers in the reaction media, leading to a significant increase in signal. Raising the pH further (9-10) increased the quencher population while decreasing AP activity, resulting in a decrease of signal. Although AP had maximal activity at pH 11 in Tris, a slight decrease in staining intensity was observed, most likely due to the excessively high population of quenchers that could not be overcome by the increased AP activity (raising the pH from 8.5 to 11 increases [Tris base] about 50%, with AP activity increasing by only about 20%). […]

[4] = system: Ki67 on FFPE tonsil tissue; assay: HRP DAB amplified by QMP-biotin with various leaving groups; conditions: CHES pH 10.0, ultraView DAB control; for staining intensity and signal diffusion compared to the control slide: quaternary amine leaving groups, 100 μM; for signal resolution and intensity compared to the control slide: monofluoro 400 nM, acetate and methoxy 100 μM
Procedure: (b) Quinone methide analog precursor amplified DAB (FIGS. 21(B)-(D)). The tissue was deparaffinized and retrieved as described in the general procedures. Rabbit-anti-Ki-67 antibody incubation (37° C., 16 minutes) and washing were followed by secondary antibody incubation with a goat polyclonal anti-rabbit antibody conjugated to AP (37° C.; 12 minutes). After incubating with the AP conjugate the slides were washed with Special Stains wash. Pyridine QMP-biotin (100 μM) (FIG. 21(B)) or DABCO QMP-biotin (100 μM) (FIG. 21(C)) or triethylamine QMP-biotin (100 μM) (FIG. 21(D)) was dissolved in 100 mM CHES, pH 10.0, 0.05% Brij-35 to a final concentration of 100 nM. QMP turnover was achieved by adding 100 μL of AP Enhancer followed by 100 μL of biotin labeled QMP and incubating at 37° C. for 16 minutes. The deposited hapten was subsequently bound by streptavidin-HRP conjugate (37° C.; 8 minutes), and visualized via a brown precipitate produced by HRP upon the addition of hydrogen peroxide and DAB (37° C.; 8 minutes). The DAB was toned by the addition of copper sulfate (37° C.; 4 minutes). The stained tissue sections were counterstained with modified Mayer's hematoxylin (37° C.; 4 minutes) and then incubated with Bluing Reagent (37° C.; 4 minutes). They were then dehydrated through a graded ethanol series, cleared with xylene, and manually cover-slipped.
(b) QMP amplified DAB (FIGS. 22(B)-22(D)). The tissue was deparaffinized and retrieved as described in the general procedures. Rabbit-anti-Ki-67 antibody incubation (37° C., 16 minutes) and washing were followed by secondary antibody incubation with a goat polyclonal anti-rabbit antibody conjugated to AP (37° C.; 12 minutes). After incubating with the AP conjugate the slides were washed with Special Stains wash. Monofluoro QMP-biotin (400 nM) (FIG. 22(B)) or acetate QMP-biotin (100 μM) (FIG. 22(C)) or methoxy QMP-biotin (100 μM) (FIG. 22(D)) was dissolved in 100 mM CHES, pH 10.0, 0.05% Brij-35 to a final concentration of 100 nM. QMP turnover was achieved by adding 100 μL of AP Enhancer followed by 100 μL of biotin labeled QMP and incubating at 37° C. for 16 minutes. The deposited biotin was subsequently bound by a streptavidin-HRP conjugate (37° C.; 8 minutes), and visualized via a brown precipitate produced by HRP upon the addition of hydrogen peroxide and DAB (37° C.; 8 minutes). The DAB was toned by the addition of copper sulfate (37° C.; 4 minutes). The stained tissue sections were counterstained with modified Mayer's hematoxylin (37° C.; 4 minutes) and then incubated with Bluing Reagent (37° C.; 4 minutes). They were then dehydrated through a graded ethanol series, cleared with xylene, and manually cover-slipped.

Compound: CN(C)c1ccc(N=Nc2ccc(S(=O)(=O)NCCOCCOCCOCCOCCOCCOCCOCCOCCC(=O)NCCCCCCNC(=O)C(F)c3ccccc3OP(=O)(O)O)cc2)cc1 (centres unmarked) [28(C)]
- QMP remaining ([1]; 0.0 days): 100%
- QMP remaining ([1]; 1.0 days): 100%
- QMP remaining ([1]; 4.0 days): 100%
- QMP remaining ([1]; 8.0 days): 100%
- QMP remaining ([1]; 10.0 days): 100%
- QMP remaining ([1]; 14.0 days): 100%
- QMP remaining ([1]; 17.0 days): 100%
- QMP remaining ([1]; 25.0 days): 97.8%
- QMP remaining ([1]; 36.0 days): 96.7%

Compound: CN1/C(=C/C=C/C=C/C2=[N+](CCCCCC(=O)NCCCCCCNC(=O)C(F)c3ccccc3OP(=O)(O)O)c3ccccc3C2(C)C)C(C)(C)c2ccccc21.[Cl-] (centres unmarked) [28(D)]
- QMP remaining ([1]; 0.0 days): 99.9%
- QMP remaining ([1]; 1.0 days): 99.8%
- QMP remaining ([1]; 4.0 days): 95.4%
- QMP remaining ([1]; 8.0 days): 95.6%
- QMP remaining ([1]; 10.0 days): 95.7%
- QMP remaining ([1]; 14.0 days): 95.1%
- QMP remaining ([1]; 17.0 days): 95.8%
- QMP remaining ([1]; 25.0 days): 95.5%
- QMP remaining ([1]; 36.0 days): 94%

Compound: O=C(CCCCC1SCC2NC(=O)NC21)NCCc1ccc(OP(=O)(O)O)c(CF)c1 (centres unmarked) [Compound 14, 2-(fluoromethyl)-4-(2-(5-(2-oxohexahydro-1H-thieno[3,4-d]imidazol-4-yl)pentanamido)ethyl)phenyl dihydrogen phosphate]
- signal resolution [2]: well resolved signals

Compound: O=C(CCCCC1SCC2NC(=O)NC21)NCCCCCC(=O)Nc1ccc(OP(=O)(O)O)c(C(F)F)c1 (centres unmarked) [Compound 58]
- diffusion at the upper end of the pH range ([3]; Tris buffer, pH 7-12): still too great to be of clinical use for IHC
- on-slide concentration at which significant amplification of signal was observed compared to the DAB control ([3]; Tris buffer, pH=8.5): greater than 20 μM
- diffusion of signal, off-target staining ([3]; Tris buffer, pH=8.5, 1-20 μM, all cases): increased diffusion of signal
- concentration required to give the desired level of amplification ([3]; pH 8.5 in Tris buffer): 20 µM

Compound: O=C(CCCCC1SCC2NC(=O)NC21)NCCCCCC(=O)Nc1ccc(OP(=O)(O)O)c(C[N+]23CCN(CC2)CC3)c1 (centres unmarked) [DABCO QMP-biotin, 1-(5-(6-(5-(2-oxohexahydro-1H-thieno[3,4-d]imidazol-4-yl)pentanamido)hexanamido)-2-(phosphonooxy)benzyl)-1,4-diazabicyclo[2.2.2]octan-1-ium]
- staining intensity and signal diffusion compared to the control slide [4]: much lower staining intensity and greatly diffuse signals

Compound: O=C(CCCCC1SCC2NC(=O)NC21)NCCCCCC(=O)Nc1ccc(OP(=O)(O)O)c(CF)c1 (centres unmarked) [Monofluoro QMP-biotin]
- signal resolution and intensity compared to the control slide [4]: well resolved signal with greater or equal intensity to the control slide

Compound: CC(=O)OCc1cc(NC(=O)CCCCCNC(=O)CCCCC2SCC3NC(=O)NC32)ccc1OP(=O)(O)O (centres unmarked) [acetate QMP-biotin, 5-(6-(5-(2-oxohexahydro-1H-thieno[3,4-d]imidazol-4-yl)pentanamido)hexanamido)-2-(phosphonooxy)benzyl acetate]
- signal resolution and intensity compared to the control slide [4]: weak, very diffuse signal

Compound: COCc1cc(NC(=O)CCCCCNC(=O)CCCCC2SCC3NC(=O)NC32)ccc1OP(=O)(O)O (centres unmarked) [methoxy QMP-biotin, 2-(methoxymethyl)-4-(6-(5-(2-oxohexahydro-1H-thieno[3,4-d]imidazol-4-yl)pentanamido)hexanamido)phenyl dihydrogen phosphate]
- signal resolution and intensity compared to the control slide [4]: well resolved signal but with low intensity

Compound: O=C(CCCCC1SCC2NC(=O)NC21)NCCCCCC(=O)Nc1ccc(OP(=O)(O)O)c(C[n+]2ccccc2)c1 (centres unmarked) [pyridine QMP-biotin, 1-(5-(6-(5-(2-oxohexahydro-1H-thieno[3,4-d]imidazol-4-yl)pentanamido)hexanamido)-2-(phosphonooxy)benzyl)pyridin-1-ium]
- staining intensity and signal diffusion compared to the control slide [4]: much lower staining intensity and greatly diffuse signals

Compound: CC[N+](CC)(CC)Cc1cc(NC(=O)CCCCCNC(=O)CCCCC2SCC3NC(=O)NC32)ccc1OP(=O)(O)O (centres unmarked) [triethylamine QMP-biotin, N,N-diethyl-N-(5-(6-(5-(2-oxohexahydro-1H-thieno[3,4-d]imidazol-4-yl)pentanamido)hexanamido)-2-(phosphonooxy)benzyl)ethanaminium]
- staining intensity and signal diffusion compared to the control slide [4]: much lower staining intensity and greatly diffuse signals
